# Results: US12054466B2, “Compounds for the treatment of clostridium difficile infection” (University of Notre Dame du Lac, priority 2016, dated 2024)
# Like-named read-outs stand apart in the source and are kept apart here.
# Experiments:
# [1] = system: C. difficile ATCC43255; experiment: MIC, broth microdilution; type: cell-based; conditions: Clostridioides difficile
# [2] = system: C. difficile; experiment: MIC against C. difficile (strain not named; 14 strains overall); type: cell-based, Clostridium difficile; conditions: for C. difficile MIC: strain not named
# [3] = system: C. difficile ATCC43598; experiment: MIC, broth microdilution; type: cell-based; conditions: Clostridioides difficile, C. difficile ATCC43598
# [4] = system: C. difficile BAA-1870; experiment: MIC, broth microdilution; type: cell-based; conditions: Clostridioides difficile, BAA1870, C. difficile BAA-1870 (NAP1, ribotype 27)
# [5] = system: C. difficile BAA-1804; experiment: MIC, broth microdilution; type: cell-based; conditions: Clostridioides difficile, BAA1804, C. difficile BAA-1804
# [6] = system: C. difficile BAA-1803; experiment: MIC, broth microdilution; type: cell-based; conditions: Clostridioides difficile, BAA1803, C. difficile BAA-1803 (NAP1, ribotype 027)
# [7] = system: C. difficile BAA-1801; experiment: MIC, broth microdilution; type: cell-based; conditions: Clostridioides difficile, BAA1801, C. difficile BAA-1801 (nontoxigenic)
# [8] = system: C. difficile BAA-1812; experiment: MIC, broth microdilution; type: cell-based; conditions: Clostridioides difficile, BAA1812, C. difficile BAA-1812
# [9] = system: Bacteroides fragilis HM-709; experiment: MIC against common gut bacteria; type: cell-based; conditions: HM709; Bacteroides fragilis HM-709; read-out: MIC
# [10] = system: Bacteroides fragilis; experiment: MIC against common gut bacteria; type: cell-based; conditions: read-out: MIC
# [11] = system: Bacteroides ovatus; experiment: MIC against common gut bacteria; type: cell-based; conditions: read-out: MIC
# [12] = system: Bacteroides vulgatus; experiment: MIC against common gut bacteria; type: cell-based; conditions: Phocaeicola vulgatus; Bacteroides vulgatus; read-out: MIC
# [13] = system: Bacteroides eggerthii; experiment: MIC against common gut bacteria; type: cell-based; conditions: read-out: MIC
# [14] = system: Bacteroides caccae; experiment: MIC against common gut bacteria; type: cell-based; conditions: read-out: MIC
# [15] = system: Bifidobacterium longum HM-846; experiment: MIC against common gut bacteria; type: cell-based; conditions: HM846; Bifidobacterium longum HM-846; read-out: MIC
# [16] = system: Corynebacterium sp. HM-784; experiment: MIC against common gut bacteria; type: cell-based; conditions: SP.HM784; Corynebacterium sp. HM-784; incubated aerobically; read-out: MIC
# Protocol: Minimally-inhibitory concentrations. MICs for C. difficile strains and the common gut bacteria were determined using broth microdilution techniques as reported earlier using brucella broth supplemented with hemin and vitamin K or supplemented BHIS broth (Babakhani et al., J Antimicrob Chemother 2013, 68(3), 515). Lactobacillus MRS broth was used for lactobacillus strains. […] All incubations unless specified otherwise were carried out at 24 or 48 h at 37° C. in an anaerobic chamber (Whitley DG250 workstation, Microbiology International, Frederick, MD). Corynebacterium and lactobacillus species were incubated aerobically.
# [17] = system: Fusobacterium nucleatum HM-992; experiment: MIC against common gut bacteria; type: cell-based; conditions: HM992; Fusobacterium nucleatum HM-992; read-out: MIC
# [18] = system: Lactobacillus reuteri HM-102; experiment: MIC against common gut bacteria; type: cell-based; conditions: Limosilactobacillus reuteri, HM102; Lactobacillus reuteri HM-102; read-out: MIC
# [19] = system: Lactobacillus gasseri HM-644; experiment: MIC against common gut bacteria; type: cell-based; conditions: HM644; Lactobacillus gasseri HM-644; read-out: MIC
# [20] = system: Veillonella sp. HM-49; experiment: MIC against common gut bacteria; type: cell-based; conditions: SP.HM49; Veillonella sp. HM-49; read-out: MIC
# [21] = system: C. difficile infection; conditions: patients treated for CDI; cited from earlier work
# [22] = system: C. difficile; conditions: cited from earlier work
# [23] = system: DNA, protein and peptidoglycan synthesis in C. difficile ATCC 43255; experiment: Macromolecular synthesis assays; type: cell-based; conditions: N-acetyl-d-[6-3H]-glucosamine incorporation; ½ MIC; 120 min
# Text: Macromolecular synthesis assays. The method of Mathur et al (J Antimicrob Chemother 2011, 66(5), 1087) was used with a few modifications. [2,8-^3H]-adenine (40 Ci/mmol), 1-[3,4,5-^3H(N)]-leucine (120 Ci/mmol), and N-acetyl-d-[6-^3H]-glucosamine (30 Ci/mmol) were purchased from Perkin Elmer (Waltham, MA). Ciproflaxin, linezolid, and oxacillin, were used as positive controls for DNA, protein, and peptidoglycan, respectively. Ciprofloxacin and oxacillin were purchased from Sigma-Aldrich (St. Louis, MO), linezolid was obtained from AmplaChem Inc. (Carmel, IN). […] Aliquots were taken every 30 min for radioactive counting and viability. Optimal incubation times were 60 min for DNA, 180 min for protein, and 120 min for peptidoglycan.
# [24] = ATCC43255, FIG. 3 legend, C. difficile, read-out: MIC of positive controls of the macromolecular synthesis assays
smiles,measurement,setting,value
O=C(O)c1cn(C2CC2)c2cc(N3CCNCC3)c(F)cc2c1=O [ciprofloxacin],MIC,[1]; [24],8 µg/mL
Oc1ccc(-c2nc(-c3ccc(OC4CCCC=C4Br)cc3)no2)cc1 (centres unmarked) [ix],C. difficile MIC,[2],2 µg/mL
CC(=O)NC[C@H]1CN(c2ccc(N3CCOCC3)c(F)c2)C(=O)O1 [linezolid],MIC,[1]; [24],2 µg/mL
Cc1ncc([N+](=O)[O-])n1CCO [metronidazole],MIC range in 14 C. difficile strains,[2]; 14 C. difficile strains,0.1 to 0.25 µg/mL
same,MIC,"[3]; 24 h, read-out: MIC at 24 h",0.125 µg/mL
same,MIC,"[3]; 48 h, read-out: MIC at 48 h",0.125 µg/mL
same,MIC,"[1]; C. difficile ATCC43255, 24 h, read-out: MIC at 24 h",0.01 µg/mL
same,MIC,"[1]; C. difficile ATCC43255, 48 h, read-out: MIC at 48 h",0.01 µg/mL
same,MIC,"[4]; 24 h, read-out: MIC at 24 h",0.25 µg/mL
same,MIC,"[4]; 48 h, read-out: MIC at 48 h",0.5 µg/mL
same,MIC,"[5]; 24 h, read-out: MIC at 24 h",0.25 µg/mL
same,MIC,"[5]; 48 h, read-out: MIC at 48 h",0.25 µg/mL
same,MIC,"[6]; 24 h, read-out: MIC at 24 h",0.25 µg/mL
same,MIC,"[6]; 48 h, read-out: MIC at 48 h",0.5 µg/mL
same,MIC,"[7]; 24 h, read-out: MIC at 24 h",0.125 µg/mL
same,MIC,"[7]; 48 h, read-out: MIC at 48 h",0.125 µg/mL
same,MIC,"[8]; 24 h, read-out: MIC at 24 h",0.25 µg/mL
same,MIC,"[8]; 48 h, read-out: MIC at 48 h",0.25 µg/mL
same,MIC,[9],0.5 µg/mL
same,MIC,[10],1 µg/mL
same,MIC,[11],2 µg/mL
same,MIC,[12],2 µg/mL
same,MIC,[13],2 µg/mL
same,MIC,[14],2 µg/mL
same,MIC,[15],0.5 µg/mL
same,MIC,[16],> 32 µg/mL
same,MIC,[17],2 µg/mL
same,MIC,[18],> 32 µg/mL
same,MIC,[19],> 32 µg/mL
same,MIC,[20],2 µg/mL
same,Patients with recurrence of the infection,[21],About 25%
same,Activity against C. difficile spores,[22]; at 8× or 80× MIC,not active
same,Inhibition of toxin production,[22]; at 8×MIC,Neither vancomycin nor metronidazole inhibit toxin production
Cc1onc(-c2ccccc2)c1C(=O)N[C@@H]1C(=O)N2[C@@H]1SC(C)(C)[C@@H]2C(=O)O [oxacillin],MIC,[1]; [24],8 µg/mL
same,Inhibition of peptidoglycan synthesis,[23],54.1±13%
CCCCCc1ccc(/C(C)=C/C(=O)N[C@H](Cc2c[nH]c3ccccc23)C(=O)N[C@H](CC(N)=O)C(=O)N[C@@H](CC(=O)O)C(=O)N[C@@H]2C(=O)NCC(=O)N[C@@H](CCCN)C(=O)N[C@@H](CC(=O)O)C(=O)N[C@H](C)C(=O)N[C@@H](CC(=O)O)C(=O)NCC(=O)N[C@H](CO)C(=O)N[C@@H]([C@H](C)CC(=O)O)C(=O)N[C@@H](CC(=O)c3ccccc3N)C(=O)O[C@@H]2C)cc1 [surotomycin],Inhibition of toxin production,[22]; […],nor inhibits toxin production
Oc1ccc(-c2nc(-c3ccc(OC4CC4)cc3)no2)cc1 [vii],C. difficile MIC,[2],8 µg/mL
Oc1ccc(-c2nc(-c3ccc(OC4CCC=C4Br)cc3)no2)cc1 (centres unmarked) [xi],C. difficile MIC,[2],2 µg/mL
Oc1ccc(-c2nc(-c3ccc(OC(F)(F)F)cc3)no2)cc1 [xvii],C. difficile MIC,[2],4 µg/mL
NCc1ccc(-c2nc(-c3ccc(Oc4ccc(C(F)(F)F)cc4)cc3)no2)cc1 [xxi],C. difficile MIC,[2],4 µg/mL
Oc1ccc(-c2nc(-c3ccc(OC4CCCC4)cc3)no2)cc1 [xxii],C. difficile MIC,[2],2 µg/mL
